Legend:
Format in all cases: in vivo, hairless guinea pig
[1] = transdermal drug absorption from gel formulation with microprojection systems, extrapolated from urinary excretion
Method: (§1) Pretreatment and integrated systems described In U.S. application Ser. Nos. 10/971,430 and 10/970,901 were employed for the following analysis. The microprojection designs with retention features (i.e., 30a-30c) were used with the integrated system while the microprojection designs without retention features (i.e., 30d-30g) were used with the pretreatment system.
(§2) Following application of the systems, the gel formulation was left in contact with the skin for up to 24 h.

[2] = skin site irritation and bleeding after 24 h system wearing (erythema+edema score, photographs)
Method: as §1, §2
Referring now to FIG. 4, there is shown a series of photographs of the skin site following 24 h system wearing time.
An additional experiment using the pretreatment system was performed to compare microprojections lengths of 120 and 145 μm.
Referring now to FIG. 6, there is shown a graph illustrating the combined erythema+edema score obtained with the various microprojection designs. […] The results thus confirm that lower irritation is observed with shorter microprojections. Further, the skin site was not distinguishable from control sites (24 h wearing with the same formulation, no microprojection treatment).

[3] = urinary excretion of intact RWJ-445167 following IV injection (LC-MS); conditions: following IV injection of 0.5 to 3 mg RWJ-445167

enhancement factor ([1]; 120 μm microprojection array pretreatment vs no microprojection treatment): at least 10000 fold
duration of delivery ([1]; 120 μm microprojections (FIG. 8)): sustained delivery for 24 h
drug absorbed ([1]; following pretreatment with a 120 μm microprojection array, 24 h wearing, 20 wt % gel formulation): about 2.5 mg
drug absorption ([1]; formulation applied to the skin for 24 h in the absence of treatment with a microprojection array, detection limit): < 0.2 μg absorbed per 24 h
dose found excreted intact in urine [3]: 7.5 % of the dose
SMILES: Cc1cccc(S(=O)(=O)Nc2ccc(C)n(CC(=O)NCCON=C(N)N)c2=O)c1 [RWJ-445167]
combined erythema+edema score (irritation) ([2]; 120 μm microprojections (FIG. 6), 24 h wearing): absence of irritation
bleeding / erythema at skin site ([2]; pretreatment system, 120 μm microprojection length (FIG. 5)): no bleeding or erythema
bleeding at skin site ([2]; pretreatment system, 145 μm microprojection length (FIG. 5)): some pinpoint bleeding
